Assay results: patent US10787452B2 (Vertex Pharmaceuticals Incorporated, priority 2012, dated 2020)
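Further: compound concentration needed to lower the Cisplatin-alone IC50 by a set fold.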

The compounds below were run on HCT116 colorectal cancer cells (assay: Cisplatin sensitization assay (96 h cell viability MTS)). Settings: 96 h MTS, compound plus Cisplatin.
Assay type: cell-based
In short: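 Test compound and cisplatin were added together as a full matrix of 2-fold serial dilutions, each from a top final concentration of 10 μM. Cells were incubated 96 h at 37° C in 5% CO2, then viability was read by MTS after a further 1 h incubation.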
With `CN1CC2CN(C(=O)C3CCN(c4c(F)cncc4NC(=O)c4c(N)nn5cc(F)cnc45)CC3)CC2C1` (centres unmarked) [I-G-18, 2-amino-6-fluoro-N-(5-fluoro-4-(4-(5-methyloctahydropyrrolo[3,4-c]pyrrole-2-carbonyl)piperidin-1-yl)pyridin-3-yl)pyrazolo[1,5-a]pyrimidine-3-carboxamide] the “Cisplatin Sensitization Assay” value was “+++ (Compounds with a Cisplatin sensitization value of <0.02 μM are marked with “+++.”)”. With `CN1CCN(CC2CCN(c3c(F)cncc3NC(=O)c3c(N)nn4cc(C5(C#N)CC5)cnc34)CC2)CC1` [I-N-192, 2-amino-6-(1-cyanocyclopropyl)-N-(5-fluoro-4-(4-((4-methylpiperazin-1-yl)methyl)piperidin-1-yl)pyridin-3-yl)pyrazolo[1,5-a]pyrimidine-3-carboxamide] the “Cisplatin Sensitization Assay” value was “+++ (Compounds with a Cisplatin sensitization value of <0.02 μM are marked with “+++.”)”. With `CS(=O)(=O)c1ccc(-c2ccncc2NC(=O)c2c(N)nn3cc(F)cnc23)cc1` [I-C-61, 2-amino-6-fluoro-N-(4-(4-(methylsulfonyl)phenyl)pyridin-3-yl)pyrazolo[1,5-a]pyrimidine-3-carboxamide] the “Cisplatin Sensitization Assay” value was “+++ (Compounds with a Cisplatin sensitization value of <0.02 μM are marked with “+++.”)”. With `CC(=O)N1CCC(c2ccncc2NC(=O)c2c(N)nn3cc(F)cnc23)CC1` [I-C-69, N-(4-(1-acetylpiperidin-4-yl)pyridin-3-yl)-2-amino-6-fluoropyrazolo[1,5-a]pyrimidine-3-carboxamide] the “Cisplatin Sensitization Assay” value was “+++ (Compounds with a Cisplatin sensitization value of <0.02 μM are marked with “+++.”)”. With `N#CC1CN(C(=O)C2CCN(c3c(F)cncc3NC(=O)c3c(N)nn4cc(F)cnc34)CC2)C1` [I-G-76, 2-amino-N-(4-(4-(3-cyanoazetidine-1-carbonyl)piperidin-1-yl)-5-fluoropyridin-3-yl)-6-fluoropyrazolo[1,5-a]pyrimidine-3-carboxamide] the “Cisplatin Sensitization Assay” value was “+++ (Compounds with a Cisplatin sensitization value of <0.02 μM are marked with “+++.”)”. In the case of `Nc1nn2cc(F)cnc2c1C(=O)Nc1cncc(F)c1N1CCN(S(=O)(=O)C2CCOCC2)CC1` [I-N-158, 2-amino-6-fluoro-N-(5-fluoro-4-(4-((tetrahydro-2H-pyran-4-yl)sulfonyl)piperazin-1-yl)pyridin-3-yl)pyrazolo[1,5-a]pyrimidine-3-carboxamide], the “Cisplatin Sensitization Assay” value was “+++ (Compounds with a Cisplatin sensitization value of <0.02 μM are marked with “+++.”)”. With `Nc1nn2cc(F)cnc2c1C(=O)Nc1cncc(F)c1N1CCC(S(=O)(=O)N2CCC2)CC1` [I-N-169, 2-amino-N-(4-(4-(azetidin-1-ylsulfonyl)piperidin-1-yl)-5-fluoropyridin-3-yl)-6-fluoropyrazolo[1,5-a]pyrimidine-3-carboxamide] the “Cisplatin Sensitization Assay” value was “+++ (Compounds with a Cisplatin sensitization value of <0.02 μM are marked with “+++.”)”. In the case of `Nc1nn2cc(F)cnc2c1C(=O)Nc1cncc(Cl)c1N1CCCC1` [I-N-281, 2-amino-N-(5-chloro-4-(pyrrolidin-1-yl)pyridin-3-yl)-6-fluoropyrazolo[1,5-a]pyrimidine-3-carboxamide], the “Cisplatin Sensitization Assay” value was “+++ (Compounds with a Cisplatin sensitization value of <0.02 μM are marked with “+++.”)”. With `Nc1nn2cc(F)cnc2c1C(=O)Nc1cncc(F)c1N1CC(=O)N2CCCC2C1` (centres unmarked) [I-N-232, 2-amino-6-fluoro-N-(5-fluoro-4-(4-oxohexahydropyrrolo[1,2-a]pyrazin-2(1H)-yl)pyridin-3-yl)pyrazolo[1,5-a]pyrimidine-3-carboxamide] the “Cisplatin Sensitization Assay” value was “++ (Compounds with a Cisplatin sensitization value >0.02 μM but <0.2 μM are marked with “++.”)”. For `CC(C)(O)CN1CCN(c2c(F)cncc2NC(=O)c2c(N)nn3cc(F)cnc23)CC1` [I-N-139, 2-amino-6-fluoro-N-(5-fluoro-4-(4-(2-hydroxy-2-methylpropyl)piperazin-1-yl)pyridin-3-yl)pyrazolo[1,5-a]pyrimidine-3-carboxamide], the “Cisplatin Sensitization Assay” value was “+++ (Compounds with a Cisplatin sensitization value of <0.02 μM are marked with “+++.”)”. `CC1(C)CCCN1c1ccncc1NC(=O)c1c(N)nn2cc(F)cnc12` [I-N-220, 2-amino-N-(4-(2,2-dimethylpyrrolidin-1-yl)pyridin-3-yl)-6-fluoropyrazolo[1,5-a]pyrimidine-3-carboxamide] was tested, and the “Cisplatin Sensitization Assay” value was “++ (Compounds with a Cisplatin sensitization value >0.02 μM but <0.2 μM are marked with “++.”)”. `CN1CCC(c2ccncc2NC(=O)c2c(N)nn3cc(C(C)(C)C#N)cnc23)CC1` [I-C-23, 2-amino-6-(2-cyanopropan-2-yl)-N-(4-(1-methylpiperidin-4-yl)pyridin-3-yl)pyrazolo[1,5-a]pyrimidine-3-carboxamide] was tested, and the “Cisplatin Sensitization Assay” value was “+ (Compounds with a Cisplatin sensitization value >0.2 μM but <5 μM are marked with “+.”)”. With `Nc1nn2cc(F)cnc2c1C(=O)Nc1cncc(F)c1N1CCC(C(=O)N2CC(N3CCC3)C2)CC1` [I-G-49, N-(4-(4-([1,3′-biazetidine]-1′-carbonyl)piperidin-1-yl)-5-fluoropyridin-3-yl)-2-amino-6-fluoropyrazolo[1,5-a]pyrimidine-3-carboxamide] the “Cisplatin Sensitization Assay” value was “+++ (Compounds with a Cisplatin sensitization value of <0.02 μM are marked with “+++.”)”. In the case of `CN1CCC(C(=O)N2CC=C(c3c(F)cncc3NC(=O)c3c(N)nn4cc(F)cnc34)CC2)CC1` [I-C-38, 2-amino-6-fluoro-N-(5-fluoro-1′-(1-methylpiperidine-4-carbonyl)-1′,2′,3′,6′-tetrahydro-[4,4′-bipyridin]-3-yl)pyrazolo[1,5-a]pyrimidine-3-carboxamide], the “Cisplatin Sensitization Assay” value was “++ (Compounds with a Cisplatin sensitization value >0.02 μM but <0.2 μM are marked with “++.”)”. `N#CCc1cnc2c(C(=O)Nc3cnccc3OCC3CC3)c(N)nn2c1` [I-O-32, 2-amino-6-(cyanomethyl)-N-(4-(cyclopropylmethoxy)pyridin-3-yl)pyrazolo[1,5-a]pyrimidine-3-carboxamide] was tested, and the “Cisplatin Sensitization Assay” value was “+++ (Compounds with a Cisplatin sensitization value of <0.02 μM are marked with “+++.”)”. For `Nc1nn2cc(Cl)cnc2c1C(=O)Nc1cnccc1N1CCN(C2CC2)CC1` [I-N-64, 2-amino-6-chloro-N-(4-(4-cyclopropylpiperazin-1-yl)pyridin-3-yl)pyrazolo[1,5-a]pyrimidine-3-carboxamide], the “Cisplatin Sensitization Assay” value was “+++ (Compounds with a Cisplatin sensitization value of <0.02 μM are marked with “+++.”)”. With `Nc1nn2cc(F)cnc2c1C(=O)Nc1cnccc1N1CCCCCC1` [I-N-264, 2-amino-N-(4-(azepan-1-yl)pyridin-3-yl)-6-fluoropyrazolo[1,5-a]pyrimidine-3-carboxamide] the “Cisplatin Sensitization Assay” value was “+ (Compounds with a Cisplatin sensitization value >0.2 μM but <5 μM are marked with “+.”)”. In the case of `CN1CCC(OC2CCN(c3ccncc3NC(=O)c3c(N)nn4cc(F)cnc34)CC2)CC1` [I-N-154, 2-amino-6-fluoro-N-(4-(4-((1-methylpiperidin-4-yl)oxy)piperidin-1-yl)pyridin-3-yl)pyrazolo[1,5-a]pyrimidine-3-carboxamide], the “Cisplatin Sensitization Assay” value was “+++ (Compounds with a Cisplatin sensitization value of <0.02 μM are marked with “+++.”)”. `Nc1nn2cc(F)cnc2c1C(=O)Nc1cnccc1N1CCOCC1` [I-N-141, 2-amino-6-fluoro-N-(4-morpholinopyridin-3-yl)pyrazolo[1,5-a]pyrimidine-3-carboxamide] was tested, and the “Cisplatin Sensitization Assay” value was “+++ (Compounds with a Cisplatin sensitization value of <0.02 μM are marked with “+++.”)”. With `N#CCc1cnc2c(C(=O)Nc3cnccc3N3CCCCC3)c(N)nn2c1` [I-N-84, 2-amino-6-(cyanomethyl)-N-(4-(piperidin-1-yl)pyridin-3-yl)pyrazolo[1,5-a]pyrimidine-3-carboxamide] the “Cisplatin Sensitization Assay” value was “+++ (Compounds with a Cisplatin sensitization value of <0.02 μM are marked with “+++.”)”. In the case of `Nc1nn2cc(F)cnc2c1C(=O)Nc1cncc(F)c1N1CCC(C(=O)N2CCN(C3CC3)CC2)CC1` [I-G-13, 2-amino-N-(4-(4-(4-cyclopropylpiperazine-1-carbonyl)piperidin-1-yl)-5-fluoropyridin-3-yl)-6-fluoropyrazolo[1,5-a]pyrimidine-3-carboxamide], the “Cisplatin Sensitization Assay” value was “+++ (Compounds with a Cisplatin sensitization value of <0.02 μM are marked with “+++.”)”. In the case of `Nc1nn2cc(F)cnc2c1C(=O)Nc1cnccc1-c1ccccc1` [I-C-5, 2-amino-6-fluoro-N-(4-phenylpyridin-3-yl)pyrazolo[1,5-a]pyrimidine-3-carboxamide], the “Cisplatin Sensitization Assay” value was “+++ (Compounds with a Cisplatin sensitization value of <0.02 μM are marked with “+++.”)”. `CN1CCN(CC2CCN(c3c(F)cncc3NC(=O)c3c(N)nn4cc(F)cnc34)CC2)CC1=O` [I-N-171, 2-amino-6-fluoro-N-(5-fluoro-4-(4-((4-methyl-3-oxopiperazin-1-yl)methyl)piperidin-1-yl)pyridin-3-yl)pyrazolo[1,5-a]pyrimidine-3-carboxamide] was tested, and the “Cisplatin Sensitization Assay” value was “+++ (Compounds with a Cisplatin sensitization value of <0.02 μM are marked with “+++.”)”. For `CN1CCC(Oc2c(F)cncc2NC(=O)c2c(N)nn3cc(F)cnc23)CC1` [I-O-89, 2-amino-6-fluoro-N-(5-fluoro-4-((1-methylpiperidin-4-yl)oxy)pyridin-3-yl)pyrazolo[1,5-a]pyrimidine-3-carboxamide], the “Cisplatin Sensitization Assay” value was “++ (Compounds with a Cisplatin sensitization value >0.02 μM but <0.2 μM are marked with “++.”)”. In the case of `CN1CCN(c2c(F)cncc2NC(=O)c2c(N)nn3cc(F)cnc23)CC1=O` [I-N-212, 2-amino-6-fluoro-N-(5-fluoro-4-(4-methyl-3-oxopiperazin-1-yl)pyridin-3-yl)pyrazolo[1,5-a]pyrimidine-3-carboxamide], the “Cisplatin Sensitization Assay” value was “+++ (Compounds with a Cisplatin sensitization value of <0.02 μM are marked with “+++.”)”. In the case of `CCOc1ccncc1NC(=O)c1c(N)nn2cc(F)cnc12` [I-O-14, 2-amino-N-(4-ethoxypyridin-3-yl)-6-fluoropyrazolo[1,5-a]pyrimidine-3-carboxamide], the “Cisplatin Sensitization Assay” value was “+++ (Compounds with a Cisplatin sensitization value of <0.02 μM are marked with “+++.”)”.
